Test results taken from patent US8222404B2, “[1,2,4]Thiadiazin-3-yl acetic acid compound and methods of making the acetic acid compound” (Anadys Pharmaceuticals, Inc., priority 2008, dated 2012).

test system: HCV Huh-luc/neo-ET replicon cells; assay: Luciferase-Based HCV Replicon Assay (EC50 (1b)); type: cell-based; details: Hepatitis C virus, 72 hours exposure, luciferase activity
Summary of the method: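 EC50 (1b) derived from % inhibition of luciferase signal relative to untreated cells, background set by 100 nM BILN-2061 (protease inhibitor). Triplicate dose series added to replicon cells 24 h post-seeding; luminescence measured after 72 h compound exposure.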

Compared with `CS(=O)(=O)NCc1csc2c1S(=O)(=O)N=C(C1=C(O)C3CCCC3N(Cc3ccc(F)cc3)C1=O)N2` (racemic) [Example 2, (rac-cis)-N-{3-[1-(4-Fluoro-benzyl)-4-hydroxy-2-oxo-2,4a,5,6,7,7a-hexahydro-1H-[1]pyrindin-3-yl]-1,1-dioxo-1,4-dihydro-1λ^6-thieno[2,3-e][1,2,4]thiadiazin-7-ylmethyl}-methanesulfonamide], `CS(=O)(=O)NCc1csc2c1S(=O)(=O)N=C(C1=C(O)C3CCCCCC3N(Cc3ccc(F)cc3Cl)C1=O)N2` (racemic) [Example 121, (rac-cis)-N-{3-[1-(2-Chloro-4-fluoro-benzyl)-4-hydroxy-2-oxo-2,4a,5,6,7,8,9,9a-octahydro-1H-cyclohepta[b]pyridin-3-yl]-1,1-dioxo-1,4-dihydro-1λ^6-thieno[2,3-e][1,2,4]thiadiazin-7-ylmethyl}-methanesulfonamide] is higher in EC50: 5 to 20 nM for the first, over 1000 nM for the second. The first is the more potent here.

`CC(C)(C)CCN1C(=O)C(C2=NS(=O)(=O)c3c(CNS(C)(=O)=O)csc3N2)=C(O)C2CCCCC21` (racemic) [Example 133, (rac-cis)-N-{3-[1-(3,3-Dimethyl-butyl)-4-hydroxy-2-oxo-1,2,4a,5,6,7,8,8a-octahydro-quinolin-3-yl]-1,1-dioxo-1,4-dihydro-1λ^6-thieno[2,3-e][1,2,4]thiadiazin-7-ylmethyl}-methanesulfonamide] and `CC(C)CCN1C(=O)C(C2=NS(=O)(=O)c3c(CNS(C)(=O)=O)csc3N2)=C(O)C2CCCCCC21` (racemic) [Example 138, (rac-cis)-N-{3-[4-Hydroxy-1-(3-methyl-butyl)-2-oxo-2,4a,5,6,7,8,9,9a-octahydro-1H-cyclohepta[b]pyridin-3-yl]-1,1-dioxo-1,4-dihydro-1λ^6-thieno[2,3-e][1,2,4]thiadiazin-7-ylmethyl}-methanesulfonamide] fall in the same range of EC50: 20 to 100 nM for the first, 20 to 100 nM for the second.

First: CS(=O)(=O)NCc1csc2c1S(=O)(=O)N=C(C1=C(O)[C@@H]3[C@@H]4CC[C@@H](C4)[C@@H]3N(C3CCCCC3)C1=O)N2 [Example 98, N-[3-((1S,2S,7R,8R)-3-Cyclohexyl-6-hydroxy-4-oxo-3-aza-tricyclo[6.2.1.0^2,7]undec-5-en-5-yl)-1,1-dioxo-1,4-dihydro-1λ^6-thieno[2,3-e][1,2,4]thiadiazin-7-ylmethyl]-methanesulfonamide]
Second: CS(=O)(=O)NCc1csc2c1S(=O)(=O)N=C(C1=C(O)[C@@H]3[C@H]4CC[C@H](C4)[C@@H]3N(CCC3CC3)C1=O)N2 [Example 106, N-{3-[(1R,2S,7R,8S)-3-(2-Cyclopropyl-ethyl)-6-hydroxy-4-oxo-3-aza-tricyclo[6.2.1.0^2,7]undec-5-en-5-yl]-1,1-dioxo-1,4-dihydro-1λ^6-thieno[2,3-e][1,2,4]thiadiazin-7-ylmethyl}-methanesulfonamide]
The EC50 of the first is higher: 100 to 1000 nM for the first, 5 to 20 nM for the second.

`CS(=O)(=O)NCc1csc2c1S(=O)(=O)N=C(C1=C(O)C3CCCCC3N(Cc3ccsc3)C1=O)N2` (racemic) [Example 135, (rac-cis)-N-[3-(4-Hydroxy-2-oxo-1-thiophen-3-ylmethyl-1,2,4a,5,6,7,8,8a-octahydro-quinolin-3-yl)-1,1-dioxo-1,4-dihydro-1λ^6-thieno[2,3-e][1,2,4]thiadiazin-7-ylmethyl]-methanesulfonamide] and `CS(=O)(=O)NCc1csc2c1S(=O)(=O)N=C(C1=C(O)C3C4C=CC(C4)C3NC1=O)N2` (racemic) [Example 84, (rac-di-exo)-N-[3-(6-Hydroxy-4-oxo-3-aza-tricyclo[6.2.1.0^2,7]undeca-5,9-dien-5-yl)-1,1-dioxo-1,4-dihydro-1λ^6-thieno[2,3-e][1,2,4]thiadiazin-7-ylmethyl]-methanesulfonamide] cannot be ordered by EC50: over 1000 nM for the first, over 1000 nM for the second.
